Measurements published in patent US8367084B2, “Oily base for a cosmetic and cosmetic comprising the same” (Kokyu Alcohol Kogyo Co., Ltd., priority 2009, dated 2013).

Key:
Type in all cases: physicochemical
[1] = Acid value (Cosmetics Raw Material Standard 18); conditions: ester compound
From the text: Acid value: determined in accordance with “Cosmetics Raw Material Standard 18, Method for the Determination of an Acid Value”.

[2] = Hydroxyl value (Cosmetics Raw Material Standard 24); conditions: ester compound; unit assumed
From the text: Hydroxyl value: determined in accordance with “Cosmetics Raw Material Standard 24, Method for the Determination of a Hydroxyl Value”.

[3] = Viscosity by Brookfield Viscometer DV-II+; conditions: Spindle No. 2, 12 rpm
Protocol: Viscosity: determined by Brookfield Viscometer DV-II+ (Spindle No. 2, 12 rpm, 25 degrees C.).

[4] = Compatibility of the ester compound with oil agents; parameters: key to Compatibility: G: the compound exhibits the compatibility with both the hydrocarbon oil and silicone oil; M: the compound exhibits the compatibility with either of the two; B: the compound exhibits the compatibility with neither of the two; conditions: for Compatibility: 90% by mass ester compound in 10% by mass oil agent, appearance after one week at 25 degrees C.; for compatibility with the oil agents (in words): ester compound
Protocol: Compatibility: The oil agents used were as follows:
Hydrocarbon oil: Squalane (OLIVE SQUALANE from Kokyu Alcohol Kogyo Co., Ltd.)
Silicone oil: Cyclomethicone (DOWCORNING TORAY SH 245 FLUID, trademark, from Dow Corning Toray Co., Ltd.)
In 10% by mass of each oil agent indicated above were dissolved 90% by mass of the ester compound obtained from Preparation Examples and Comparative Preparation Examples in a hot water bath at a temperature of 80 to 90 degrees C. for 60 minutes under stirring. Next, the mixture obtained was cooled to 50 degrees C. under stirring and then placed in a temperature-controlled room at 25 degrees C. The appearance after one week was evaluated visually. The indication of the evaluation results is as follows.

Molecule | Acid value [1] | Hydroxyl value [2] [mg KOH/g] | Viscosity in mPa · s at 25° C. [3] [mPa · s] | Compatibility [4] | compatibility with the oil agents (in words) [4]
CCCCC(CC)C(=O)OCC(COC(=O)C(CC)CCCC)(COC(=O)C(CC)CCCC)COC(=O)C(CC)CCCC (stereo not shown) [Com. Prep. Ex. 2, pentaerythrityl tetraethylhexanoate] | 0.02 | 1.25 | 109 | M | not good
pentaerythrityl tetraisostearate [Com. Prep. Ex. 3] | 0.38 | 0.59 | 290 | M | not good
